Format in all cases: nucleic-acid assay
The subject of experiment [1] is Nucleic Acid. The experiment in a line: Induction of supercoiled Escherichia coli pUC19 DNA cleavage assessed as formation of open-circular DNA at 357 uM after 36 hrs by agarose gel electrophoresis.
The subject of experiment [2] is Nucleic Acid. The experiment in a line: Binding affinity to calf thymus duplex DNA assessed as thermal melting temperature at 0.11 mM by UV-visible spectrophotometry. The note with it: Bos taurus.
Experiment [3] concerns Nucleic Acid. The experiment in a line: Binding affinity to calf thymus duplex DNA assessed as change in viscosity of DNA at 20 mM by viscometric analysis. The note with it: Bos taurus.
For experiment [4], the system named is Nucleic Acid. Description: Induction of supercoiled Escherichia coli pUC19 DNA cleavage assessed as formation of open-circular DNA at 71 uM after 36 hrs by agarose gel electrophoresis.
In experiment [5] the test system is Nucleic Acid. The experiment in a line: Induction of supercoiled Escherichia coli pUC19 DNA cleavage assessed as formation of open-circular DNA at 143 uM after 36 hrs by agarose gel electrophoresis.
The test system of experiment [6] is Nucleic Acid. The experiment in a line: Induction of supercoiled Escherichia coli pUC19 DNA cleavage assessed as formation of open-circular DNA at 214 uM after 36 hrs by agarose gel electrophoresis.
For experiment [7], the system named is Nucleic Acid. The experiment in a line: Induction of supercoiled Escherichia coli pUC19 DNA cleavage assessed as formation of open-circular DNA at 286 uM after 36 hrs by agarose gel electrophoresis.
For experiment [8], the system named is Nucleic Acid. The experiment in a line: Induction of supercoiled Escherichia coli pUC19 DNA cleavage assessed as formation of open-circular DNA at 357 uM after 32 hrs by agarose gel electrophoresis.
Experiment [9] relates to Nucleic Acid. The experiment in a line: Induction of supercoiled Escherichia coli pUC19 DNA cleavage assessed as formation of open-circular DNA at 286 uM by agarose gel electrophoresis. The settings on record: TDE = time-dependent effect.
The subject of experiment [10] is Nucleic Acid. Description: Induction of supercoiled Escherichia coli pUC19 DNA cleavage assessed as formation of open-circular DNA at 357 uM after 36 hrs by agarose gel electrophoresis in presence of singlet oxygen scavenger NaN3.
Experiment [11] deals with Nucleic Acid. Description: Induction of supercoiled Escherichia coli pUC19 DNA cleavage assessed as formation of open-circular DNA at 357 uM after 36 hrs by agarose gel electrophoresis in presence of […].
Experiment [12] relates to Nucleic Acid. Description: Induction of supercoiled Escherichia coli pUC19 DNA cleavage assessed as formation of open-circular DNA at 357 uM after 36 hrs by agarose gel electrophoresis in presence of hydroxyl radical scavenger t-BuOH.
The test system of experiment [13] is Nucleic Acid. Description: Induction of supercoiled Escherichia coli pUC19 DNA cleavage assessed as formation of open-circular DNA at 357 uM after 36 hrs by agarose gel electrophoresis in presence of hydroxyl radical scavenger DMSO.
For experiment [14], the system named is Nucleic Acid. Description: Induction of supercoiled Escherichia coli pUC19 DNA cleavage assessed as formation of open-circular DNA at 0.285 mM after 36 hrs by TBARS method in presence of hydroxy radical.

Structures are written as SMILES. Calls of active or inactive are those of the source. No cut-off for these calls is given here.

In the case of `CCNC(=O)NC(C)C(=O)N1CCNCCNCCNCC1` (stereo not given), the outcome in experiment [1] and in [3] was Active. Also, the Tm in experiment [2] was 77.6 °C.
In the case of `CC(NC(=O)NC(C)C(=O)N1CCNCCNCCNCC1)C(=O)N1CCNCCNCCNCC1` (stereo not given), the Activity came out at 97% in experiment [1]; 29% in experiment [4]; 59% in experiment [5]; 72% in experiment [6]; 89% in [7]; 97% in [8]. The Activity entry in experiment [9] was “tde”. Besides, the outcome in experiment [10], in experiment [11], in experiment [12], in experiment [13], in experiment [14] and in [3] was Active. For the same molecule, the Tm in [2] was found to be 75.7 °C.
In the case of `COC(=O)C(C)NC(=O)NC(C)C(=O)OC` (stereo not given), the outcome in experiment [1] and in experiment [3] was Active. Further, in experiment [2], the Tm worked out at 76.6 °C.

As usually defined, the Tm is the temperature at which the thermal transition is half complete.

Values taken from ChEMBL document CHEMBL1153812, “Hydrolytic cleavage of DNA by urea-bridged macrocyclic polyamines” (Eur J Med Chem, 2009).
